Results taken from PubChem BioAssay AID1259411 (Chemical Carcinogenesis Research Information System (CCRIS), 2018).
The source made the active and inactive calls. How the calls were made is not given here.

System: rodent carcinogenicity bioassays, tumor incidence
Test: CCRIS carcinogenicity studies
Outline: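 Archive of carcinogenicity, mutagenicity, tumor promotion and tumor inhibition results drawn from journals, NCI reports and other sources, expert-reviewed; covers 1985-2011 and is no longer updated.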

Measured: carcinogen call

ClCOCCl
active: Species: HUMAN, Route: INHALATION, Tumor Site: Type of Lesion: LUNG: OAT CELL CARCINOMA active; positive | Species: MOUSE, Strain/Sex: ICR/FEMALE, Route: DERMAL, Tumor Site: Type of Lesion: INTEGUMENTARY SYSTEM (SKIN): PAPILLOMA, SQUAMOUS CELL CARCINOMA active; positive | Species: MOUSE, Strain/Sex: ICR/MALE,FEMALE, Route: SUBCUTANEOUS, Dose: 12.5 µL/KG IN PEANUT OIL ONCE, Tumor Site: Type of Lesion: LUNG: ADENOMA active; positive | Species: MOUSE, Strain/Sex: ICR/MALE, Route: INHALATION, Dose: 0, 10, 100 PPB 6 HR/D, 5 D/WK FOR 6 MO (STUDY DURATION: 24 MO), Dose: 0, 10, 100 PPB 6 HR/D, 5 D/WK FOR 6 MO (STUDY DURATION: 24 MO), Tumor Site: Type of Lesion: LUNG: ADENOMA OR ADENOCARCINOMA active; positive | Species: MOUSE, Strain/Sex: STRAIN-A, Route: INHALATION, Dose: 0.005 MG/L 6 HR/D, 5 D/WK FOR A TOTAL OF 82 D OVER 27 WK, Tumor Site: Type of Lesion: LUNG: ADENOMA active; positive | Species: RAT, Strain/Sex: SPRAGUE-DAWLEY/FEMALE, Route: SUBCUTANEOUS, Dose: 3 MG IN 0.1 ML NUJOL 1/WK FOR 100 D THEN 1 MG 1/WK OR 3/MO FOR 200 D, Tumor Site: Type of Lesion: INJECTION SITE: FIBROSARCOMA active; positive | Species: RAT, Strain/Sex: SPRAGUE-DAWLEY/MALE, Route: INHALATION, Dose: 0, 1, 10, 100 PPB 6 HR/D, 5 D/WK FOR 6 MO (STUDY DURATION: 19-28 MO), Dose: 0, 1, 10, 100 PPB 6 HR/D, 5 D/WK FOR 6 MO (STUDY DURATION: 19-28 MO), Tumor Site: Type of Lesion: NASAL CAVITY: ESTHESIONEUROEPITHELIOMA active; positive | Species: RAT, Strain/Sex: SPRAGUE-DAWLEY, Route: INHALATION, Dose: 0.5 MG/M3 FOR 101 EXPOSURES, Tumor Site: Type of Lesion: LUNG: SQUAMOUS CELL CARCINOMA, NASAL CAVITY: ESTHESIONEUROEPITHELIOMA active; positive
